Here are results for 42 compounds from patent US20230135635A1, “INHIBITORS OF ULK1/2 AND METHODS OF USING SAME” (SALK INSTITUTE FOR BIOLOGICAL STUDIES, priority 2020, published 2023).

Each structure is given as a SMILES string. Where only a bound is given, the exact number is not on record here.

In the first test the target is T1, recombinant human ULK1 protein (1-649) (Homo sapiens, UniProt O75385).
T1 construct: recombinant human ULK1 protein (1-649, SignalChem #U01-11G); purchased SignalChem U01-11G
T1 sequence (O75385 1-649): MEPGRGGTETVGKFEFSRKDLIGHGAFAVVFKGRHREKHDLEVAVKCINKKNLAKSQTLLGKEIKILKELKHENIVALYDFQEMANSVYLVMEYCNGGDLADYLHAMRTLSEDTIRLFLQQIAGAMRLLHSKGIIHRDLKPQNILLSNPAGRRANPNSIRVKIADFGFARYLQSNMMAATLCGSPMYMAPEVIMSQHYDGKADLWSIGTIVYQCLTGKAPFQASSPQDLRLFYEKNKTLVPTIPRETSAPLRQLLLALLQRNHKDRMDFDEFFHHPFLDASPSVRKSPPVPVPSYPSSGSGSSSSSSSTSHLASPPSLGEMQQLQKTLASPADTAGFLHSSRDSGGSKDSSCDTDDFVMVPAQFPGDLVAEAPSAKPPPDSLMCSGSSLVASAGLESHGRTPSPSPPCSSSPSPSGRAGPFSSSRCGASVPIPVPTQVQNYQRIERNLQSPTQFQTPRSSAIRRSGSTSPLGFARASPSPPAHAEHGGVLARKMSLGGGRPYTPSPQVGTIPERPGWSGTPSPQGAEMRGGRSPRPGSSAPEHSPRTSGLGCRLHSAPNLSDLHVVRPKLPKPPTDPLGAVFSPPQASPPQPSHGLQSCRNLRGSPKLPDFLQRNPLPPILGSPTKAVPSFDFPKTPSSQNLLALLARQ
In words: ULK1 inhibition assay (ADP Glo). It counts as biochemical. The following applies: Table 1; 25 uM ATP, MBP substrate, one hour. The procedure, abridged: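 Recombinant ULK1 (2 ug/mL) phosphorylated myelin basic protein (80 ug/mL) at 25 uM ATP; ADP formed was detected by ADP-Glo after 1 h. Compounds ran in triplicate, 16-dose 3-fold serial dilution from 30 uM, to give IC50.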
Background: In ADP-Glo the light output rises with the ADP produced.
The IC50 is the concentration that gives 50% inhibition. As to `CNC(=O)c1ccccc1Nc1nc(Nc2ccc3c(c2)CN(CCOC)CC3)ncc1Br` [Compound A149, 2-{5-Bromo-2-[2-(2-methoxy-ethyl)-1,2,3,4-tetrahydro-isoquinolin-7-ylamino]-pyrimidin-4-ylamino}-N-methyl-benzamide], the IC50 was greater than 10 nM. On the same count and under the same terms, the same measure for `CNC(=O)c1ccccc1Nc1nc(Nc2ccc3c(c2)CN(C(=O)N2CCN(C)CC2)CC3)ncc1Br` [Compound A150, 2-{5-Bromo-2-[2-(4-methyl-piperazine-1-carbonyl)-1,2,3,4-tetrahydro-isoquinolin-7-ylamino]-pyrimidin-4-ylamino}-N-methyl-benzamide]: greater than 10 nM; for `CNC(=O)c1ccccc1Nc1nc(Nc2ccc3c(c2)CN(CCN)CC3)ncc1Br` [Compound A151, 2-{2-[2-(2-Amino-ethyl)-1,2,3,4-tetrahydro-isoquinolin-7-ylamino]-5-bromo-pyrimidin-4-ylamino}-N-methyl-benzamide]: greater than 10 nM. The same measure, in the same setting: then `CNC(=O)c1ccccc1Nc1nc(Nc2ccc3c(c2)CN(C(=O)CN)CC3)ncc1Br` [Compound A152, 2-{2-[2-(2-Amino-acetyl)-1,2,3,4-tetrahydro-isoquinolin-7-ylamino]-5-bromo-pyrimidin-4-ylamino}-N-methyl-benzamide], with greater than 10 nM; and `CNCC(=O)N1CCc2ccc(Nc3ncc(Br)c(Nc4ccccc4C(=O)NC)n3)cc2C1` [Compound A153, 2-{5-Bromo-2-[2-(2-methylamino-acetyl)-1,2,3,4-tetrahydro-isoquinolin-7-ylamino]-pyrimidin-4-ylamino}-N-methyl-benzamide], with greater than 10 nM.

On to `CNC(=O)c1ccccc1Nc1nc(Nc2ccc3c(c2)CN(C(=O)CCN)CC3)ncc1Br` [Compound A155, 2-{2-[2-(3-Amino-propionyl)-1,2,3,4-tetrahydro-isoquinolin-7-ylamino]-5-bromo-pyrimidin-4-ylamino}-N-methyl-benzamide], for which the IC50 was greater than 10 nM.

Consider `CNC(=O)c1ccccc1Nc1nc(Nc2ccc3c(c2)CN(C(=O)CCC(=O)O)CC3)ncc1Br` [Compound A156, 4-{7-[5-Bromo-4-(2-methylcarbamoyl-phenylamino)-pyrimidin-2-ylamino]-3,4-dihydro-1H-isoquinolin-2-yl}-4-oxo-butyric acid], for which the IC50 was greater than 10 nM.

Turning to `CNC(=O)c1ccccc1Nc1nc(Nc2ccc3c(c2)CN(CC(C)O)CC3)ncc1Br` (stereo not drawn) [Compound A157, 2-{5-Bromo-2-[2-(2-hydroxy-propyl)-1,2,3,4-tetrahydro-isoquinolin-7-ylamino]-pyrimidin-4-ylamino}-N-methyl-benzamide], the IC50 was greater than 10 nM. As for `CNC(=O)c1ccccc1Nc1nc(Nc2ccc3c(c2)CN(Cc2ccc(OC)cc2)CC3)ncc1Br` [Compound A158, 2-{5-Bromo-2-[2-(4-methoxy-benzyl)-1,2,3,4-tetrahydro-isoquinolin-7-ylamino]-pyrimidin-4-ylamino}-N-methyl-benzamide], the IC50 is greater than 10 nM. On the same count and under the same terms, then `CNC(=O)c1ccccc1Nc1nc(Nc2ccc3c(c2)CN(Cc2cccnc2)CC3)ncc1Br` [Compound A159, 2-[5-Bromo-2-(2-pyridin-3-ylmethyl-1,2,3,4-tetrahydro-isoquinolin-7-ylamino)-pyrimidin-4-ylamino]-N-methyl-benzamide], with greater than 10 nM; and `CNC(=O)c1ccccc1Nc1nc(Nc2ccc3c(c2)CN(Cc2ccncn2)CC3)ncc1Br` [Compound A160, 2-[5-Bromo-2-(2-pyrimidin-4-ylmethyl-1,2,3,4-tetrahydro-isoquinolin-7-ylamino)-pyrimidin-4-ylamino]-N-methyl-benzamide], with greater than 10 nM. As to `CNC(=O)c1ccccc1Nc1nc(Nc2ccc3c(c2)CN(S(N)(=O)=O)CC3)ncc1Br` [Compound A161, 2-[5-Bromo-2-(2-sulfamoyl-1,2,3,4-tetrahydro-isoquinolin-7-ylamino)-pyrimidin-4-ylamino]-N-methyl-benzamide], the IC50 is greater than 10 nM.

Regarding `CNC(=O)c1ccccc1Nc1nc(Nc2ccc3c(c2)CN(Cc2ccncc2)CC3)ncc1Br` [Compound A162, 2-[5-Bromo-2-(2-pyridin-4-ylmethyl-1,2,3,4-tetrahydro-isoquinolin-7-ylamino)-pyrimidin-4-ylamino]-N-methyl-benzamide], the IC50 is greater than 10 nM. In the case of `CNC(=O)c1ccccc1Nc1nc(Nc2ccc3c(c2)CN(Cc2ccccn2)CC3)ncc1Br` [Compound A163, 2-[5-Bromo-2-(2-pyridin-2-ylmethyl-1,2,3,4-tetrahydro-isoquinolin-7-ylamino)-pyrimidin-4-ylamino]-N-methyl-benzamide], the IC50 is greater than 10 nM.

Take `CNC(=O)c1ccccc1Nc1nc(Nc2ccc3c(c2)CN(CCC(=O)O)CC3)ncc1Br` [Compound A164, 3-{7-[5-Bromo-4-(2-methylcarbamoyl-phenylamino)-pyrimidin-2-ylamino]-3,4-dihydro-1H-isoquinolin-2-yl}-propionic acid]: the IC50 is greater than 10 nM. `CNC(=O)c1ccccc1Nc1nc(Nc2ccc3c(c2)CN(CCC(N)=O)CC3)ncc1Br` [Compound A166, 2-{5-Bromo-2-[2-(2-carbamoyl-ethyl)-1,2,3,4-tetrahydro-isoquinolin-7-ylamino]-pyrimidin-4-ylamino}-N-methyl-benzamide]: the IC50 was greater than 10 nM. Same read-out and setting: the same measure for `CNC(=O)c1ccccc1Nc1nc(Nc2ccc3c(c2)CN(C)CC3)ncc1Br` [Compound A167, 2-[5-Bromo-2-(2-methyl-1,2,3,4-tetrahydro-isoquinolin-7-ylamino)-pyrimidin-4-ylamino]-N-methyl-benzamide]: greater than 10 nM; for `CNC(=O)c1ccccc1Nc1nc(Nc2ccc3c(c2)C[N+](C)(C)CC3)ncc1Br` [Compound A168, 7-[5-Bromo-4-(2-methylcarbamoyl-phenylamino)-pyrimidin-2-ylamino]-2,2-dimethyl-1,2,3,4-tetrahydro-isoquinolinium; iodide]: greater than 10 nM.

Still in this test, the particulars now being: Table 2.
On to `CNC(=O)c1ccccc1Oc1nc(Nc2cc(F)c(F)c(F)c2)ncc1Br` [Compound B1], for which the IC50 is greater than 1000 nM. Same read-out and setting: the same measure for `COC(=O)c1ccccc1Oc1nc(Nc2cc(OC)c(OC)c(OC)c2)ncc1Br` [Compound B2]: less than 100 nM; for `COc1cc(Nc2ncc(Br)c(Oc3ccccc3C(=O)N(C)CCO)n2)cc(OC)c1OC` [Compound B3]: 100 to 1000 nM; for `COc1cc(Nc2ncc(Br)c(Oc3ccccc3C(=O)O)n2)cc(OC)c1OC` [Compound B4]: 100 to 1000 nM. Regarding `COC(=O)CN(C)C(=O)c1ccccc1Oc1nc(Nc2cc(OC)c(OC)c(OC)c2)ncc1Br` [Compound B5], the IC50 lay within 100 to 1000 nM. For the compound `COc1cc(Nc2ncc(Br)c(Oc3ccccc3C(=O)NCC(F)(F)F)n2)cc(OC)c1OC` [Compound B6], the IC50 was 100 to 1000 nM.

Consider `COc1cc(Nc2ncc(Br)c(Oc3ccccc3C(=O)NCCN(C)C)n2)cc(OC)c1OC` [Compound B7], for which the IC50 is greater than 1000 nM.

Turning to `COc1cc(Nc2ncc(Br)c(Oc3ccccc3C(=O)NCCS(C)(=O)=O)n2)cc(OC)c1OC` [Compound B8], the IC50 is greater than 1000 nM. Same read-out and setting: then `COc1cc(Nc2ncc(Br)c(Oc3ccccc3C(=O)N3CCOCC3)n2)cc(OC)c1OC` [Compound B9], with greater than 1000 nM; and `COc1cc(Nc2ncc(Br)c(Oc3ccccc3C(=O)NCCC#N)n2)cc(OC)c1OC` [Compound B10], with greater than 1000 nM. The same measure, in the same setting: the same measure for `COC(=O)c1ccccc1Oc1nc(Nc2ccc(N3CCN(C)CC3)cc2)ncc1Br` [Compound B11]: less than 100 nM; for `COC(=O)c1ccccc1Oc1nc(Nc2ccc(N3CCOCC3)cc2)ncc1Br` [Compound B12]: greater than 1000 nM; for `COC(=O)c1ccccc1Oc1nc(Nc2ccc(OC(F)(F)F)cc2)ncc1Br` [Compound B13]: greater than 1000 nM. Same read-out and setting: then `COC(=O)c1ccccc1Oc1nc(Nc2ccc3c(c2)OCCO3)ncc1Br` [Compound B14], with greater than 1000 nM; and `COc1cc(Nc2ncc(Br)c(Oc3ccccc3C(=O)N(C)O)n2)cc(OC)c1OC` [Compound B15], with less than 100 nM; and `COC(=O)c1ccccc1Oc1nc(Nc2cc(C)c(C)c(C)c2)ncc1Br` [Compound B16], with greater than 1000 nM.

Turning to `COC(=O)c1ccccc1Oc1nc(Nc2ccc(OC)c(OC)c2)ncc1Br` [Compound B17], the IC50 is greater than 1000 nM. On the same count and under the same terms, then `COC(=O)c1ccccc1Oc1nc(Nc2cnc3[nH]ccc3c2)ncc1Br` [Compound B18], with greater than 1000 nM. With `COC(=O)c1ccccc1Oc1nc(Nc2ccc(OC)cc2)ncc1Br` [Compound B19], the IC50 is greater than 1000 nM.

For `COC(=O)c1ccccc1Oc1nc(Nc2ccc3c(c2)OCO3)ncc1Br` [Compound B20], the IC50 was greater than 1000 nM. Turning to `COC(=O)c1ccccc1Oc1nc(Nc2cccc(C(N)=O)c2)ncc1Br` [Compound B21], the IC50 is greater than 1000 nM. On the same count and under the same terms, then `COC(=O)c1ccccc1Oc1nc(Nc2ccc3[nH]cnc3c2)ncc1Br` [Compound B22], with greater than 1000 nM; and `COC(=O)c1ccccc1Oc1nc(Nc2cccc(OC)c2)ncc1Br` [Compound B23], with greater than 1000 nM. For the compound `COC(=O)c1ccccc1Oc1nc(Nc2ccc(N(C)C)cc2)ncc1Br` [Compound B24], the IC50 was 100 to 1000 nM.
